From patent publication US12377100B2 (GILEAD SCIENCES, INC., priority 2015, dated 2025)

What was measured:
Assay type in all cases: cell-based
Settings in all cases: human PBMCs, 24 hours incubation
IL12p40 = assay: PBMC cytokine profiling assay, IL12-p40 induction
Procedure: (§1) Certain compounds disclosed herein we tested according to the procedure described below. Additionally, certain reference compounds were prepared and tested along with the compounds of the present disclosure.
(§2) Compounds were dissolved and stored in DMSO (Sigma-Aldrich, St. Louis, MO) at 10 mM concentration.
(§3) Cryopreserved human PBMCs isolated from healthy donors were purchased from StemCell Technologies (Vancouver, Canada). Cell culture medium used was RPMI with L-Glutamine (Mediatech, Manassas, VA) supplemented with 10% fetal bovine serum (Hyclone, GE Healthcare, Logan, UT) and Penicillin-Streptomycin (Mediatech). Human TNFα, IL12p40, and IFNα2a 384-well Assay capture plates, standards, buffers and processing reagents were obtained from MesoScale Discovery Technologies (MSD; Rockville, MD).
(§4) Cryopreserved human PBMCs (1×10e8 cells/ml) were thawed at 37° C. and resuspended in 25 mL warm cell culture medium. The cells were pelleted at 200×g (Beckman Avanti J-E) for 5 min and resuspended in 20 mL of fresh culture media. Cells were counted using a Cellometer (Nexcelcom Bioscience), adjusted to 2×10e6 cells, and incubated for 2 hours in an incubator set at 37° C., 5% CO2 to recover from cryopreservation. Compounds were serially diluted in DMSO at half-log steps to generate a 10-point dose range. Using a Bravo pipette equipped with a 384 well head (Agilent), 0.4 μL of compound was transferred to each well of a 384 well black, clear bottom plate (Greiner Bio-One, Germany) containing 30 μL of cell culture medium. Recovered PBMCs were then dispensed into the assay plate at 50 μL per well (100k cells/well) using the MicroFlow multichannel dispenser (Biotek). Final DMSO concentration was 0.5%. DMSO was used as the negative control. The plates were incubated for 24 hours at 37° C. PBMCs in the assay plate were pelleted by centrifugation (Beckman Avanti J-E) at 200×g for 5 min.
(§5) Using a Biomek FX 384 well pipetting station (Beckman), conditioned culture medium (CCM) from the assay plate was transferred to MSD capture plates customized for each cytokine. For IFNα and IL12-p40 detection, 25 μL and 20 μL of CCM were added directly to each capture plate, respectively. For TNFα detection, CCM was diluted 1:9 in fresh culture medium, and 20 μL of diluted CCM was used. Serially diluted calibration standards for each cytokine were used to generate standard curves and establish assay linearity. The plates were sealed and incubated overnight at 4° C. in a plate shaker (Titer Plate) set at 200 rpm. On the following day, antibodies specific for each cytokine were diluted 1:50 in MSD Diluent 100 antibody dilution buffer. Diluted antibodies were added to corresponding capture plates at 10 μL/well, and incubated at RT for 1-2 hrs in the shaker. The plates were washed with PBST buffer (3×, 60 μl/well) using a Biotek Multiflow plate washer. MSD Read Buffer diluted to 2× in deionized water and 35 μL/well was added via Biomek FX instrument. The plates were read immediately in a MSD6000 reader. Data were normalized to positive and negative controls in each assay plate. AC50 values represent compound concentrations at half-maximal effect based on normalized percent activation and calculated by non-linear regression using Pipeline Pilot software (Accelrys, San Diego, CA).

IFNα = assay: PBMC cytokine profiling assay, IFNα induction
Procedure: as §1, §2, §3, §4, §5

TNFα = assay: PBMC cytokine profiling assay, TNFα induction
Procedure: as §1, §2, §3, §4, §5

Row | Structure (SMILES) | AC50 (IL12p40; Homo sapiens, PBMC, 24 h) [µM] | AC50 (IFNα; Homo sapiens, PBMC, 24 h) [µM] | AC50 (TNFα; Homo sapiens, PBMC, 24 h) [µM] | AC50 (IFNα) [µM] | AC50 (IL12p40) [µM] | AC50 (TNFα) [µM]
1 | CCC[C@@H](CO)Nc1nc(N)nc2cc(F)c(C)nc12 [Example 67, (S)-2-((2-amino-7-fluoro-6-methylpyrido[3,2-d]pyrimidin-4-yl)amino)pentan-1-ol] | 3.9 | 23 | 6.3 | – | – | –
2 | CCC[C@@H](CO)Nc1nc(N)nc2c(Cl)cc(C)nc12 [Example 6B, (S)-2-((2-amino-8-chloro-6-methylpyrido[3,2-d]pyrimidin-4-yl)amino)pentan-1-ol] | > 50 | > 50 | > 50 | – | – | –
3 | CCCCC[C@](C)(CO)Nc1nc(N)nc2cc(F)cnc12 [Example 111, (R)-2-((2-amino-7-fluoropyrido[3,2-d]pyrimidin-4-yl)amino)-2-methylheptan-1-ol] | 0.47 | – | 0.61 | 19.8 | – | –
4 | CCCCNc1nc(N)nc2cccnc12 [Example 1B, N^4-butylpyrido[3,2-d]pyrimidine-2,4-diamine] | 2 | 2.7 | 3.9 | – | – | –
5 | CCCC[C@H](CO)Nc1nc(N)nc2cc(OCC)cnc12 [Example 106, (R)-2-((2-amino-7-ethoxypyrido[3,2-d]pyrimidin-4-yl)amino)hexan-1-ol] | 10.2 | > 50 | 13.8 | – | – | –
6 | CCC(F)(F)C[C@H](CO)Nc1nc(N)nc2cccnc12 [Example 79, (R)-2-((2-aminopyrido[3,2-d]pyrimidin-4-yl)amino)-4,4-difluorohexan-1-ol] | 11.5 | > 50 | 9.1 | – | – | –
7 | CCCCC[C@](C)(CNC(C)=O)Nc1nc(N)nc2cccnc12 [Example 116, (R)—N-(2-((2-aminopyrido[3,2-d]pyrimidin-4-yl)amino)-2-methylheptyl)acetamide] | 0.11 | > 50 | 0.036 | – | – | –
8 | CCC[C@H](Nc1nc(N)nc2cccnc12)C(=O)OC [Example 5B, (S)-methyl 2-((2-aminopyrido[3,2-d]pyrimidin-4-yl)amino)pentanoate] | > 50 | 41 | > 50 | – | – | –
9 | CCCC[C@@](C)(Nc1nc(N)nc2cc(F)cnc12)C(C)O (single isomer, unassigned) [Example 94] | – | – | – | 2.2 | 0.7 | 1
10 | CCCCNc1nc(N)nc2c(C)ccnc12 [Example 25E, N^4-butyl-8-methylpyrido[3,2-d]pyrimidine-2,4-diamine] | 19.7 | 12.3 | 20 | – | – | –
11 | Nc1nc(NCC2CCCO2)c2ncccc2n1 (stereo not drawn) [Example 16, N^4-((tetrahydrofuran-2-yl)methyl)pyrido[3,2-d]pyrimidine-2,4-diamine] | > 50 | > 50 | > 50 | – | – | –
12 | Nc1nc(NC(CO)CO)c2ncccc2n1 [Example 17, 2-((2-aminopyrido[3,2-d]pyrimidin-4-yl)amino)propane-1,3-diol] | > 50 | > 50 | > 50 | – | – | –
13 | Nc1nc(N[C@H](CO)c2ccccc2)c2ncccc2n1 [Example 7, (S)-2-((2-aminopyrido[3,2-d]pyrimidin-4-yl)amino)-2-phenylethanol] | > 50 | 34 | > 50 | – | – | –
14 | CCC[C@@H](CO)Nc1nc(N)nc2cccnc12 [Example 27C, (S)-2-((2-amino-[3,2-d]pyrimidin-4-yl)amino)pentan-1-ol] | 0.42 | 2 | 0.52 | – | – | –
15 | CC(F)CC[C@H](CO)Nc1nc(N)nc2cccnc12 (stereo partly drawn) [Example 73, (2R)-2-((2-aminopyrido[3,2-d]pyrimidin-4-yl)amino)-5-fluorohexan-1-ol] | 1.3 | > 50 | 1.3 | – | – | –
16 | CCCC[C@@H](Nc1nc(N)nc2cccnc12)c1ncc[nH]1 [Example 55, (R)—N^4-(1-(1H-imidazol-2-yl)pentyl)pyrido[3,2-d]pyrimidine-2,4-diamine] | 21.5 | 28.8 | 23.9 | – | – | –

Row | Structure (SMILES) | AC50 (IL12p40; Homo sapiens, PBMC, 24 h) [µM] | AC50 (IFNα; Homo sapiens, PBMC, 24 h) [µM] | AC50 (TNFα; Homo sapiens, PBMC, 24 h) [µM] | AC50 (IFNα) [µM] | AC50 (IL12p40) [µM] | AC50 (TNFα) [µM]
17 | CCCC[C@](C)(CO)Nc1nc(N)nc2cc(F)cnc12 [Example 98, (R)-2-((2-amino-7-fluoropyrido[3,2-d]pyrimidin-4-yl)amino)-2-methylhexan-1-ol] | 0.23 | 134 | 0.24 | – | – | –
18 | CCCC[C@](C)(CNS(C)(=O)=O)Nc1nc(N)nc2cccnc12 [Example 53, (R)—N-(2-((2-aminopyrido[3,2-d]pyrimidin-4-yl)amino)-2-methylhexyl)methanesulfonamide] | 0.28 | 3.9 | 0.26 | – | – | –
19 | CCCC[C@H](CO)Nc1nc(N)nc2cc(Cl)cnc12 [Example 23C, (R)-2-((2-amino-7-chloropyrido[3,2-d]pyrimidin-4-yl)amino)hexan-1-ol] | 25.7 | > 50 | 24.7 | – | – | –
20 | CCC[C@H](Nc1nc(N)nc2cccnc12)C(F)(F)F [Example 28, (S)—N^4-(1,1,1-trifluoropentan-2-yl)pyrido[3,2-d]pyrimidine-2,4-diamine] | 28.2 | 45 | 28.6 | – | – | –
21 | CCC[C@](C)(CO)Nc1nc(N)nc2cccnc12 [Example 80, (R)-2-((2-aminopyrido[3,2-d]pyrimidin-4-yl)amino)-2-methylpentan-1-ol] | 2.4 | > 50 | 2.7 | – | – | –
22 | C=C(C)CC[C@H](CO)Nc1nc(N)nc2cccnc12 [Example 77, (R)-2-((2-aminopyrido[3,2-d]pyrimidin-4-yl)amino)-5-methylhex-5-en-1-ol] | 43.6 | 43.6 | 43.6 | – | – | –
23 | Nc1nc(NCCCC(F)(F)F)c2ncccc2n1 [Example 29, N^4-(4,4,4-trifluorobutyl)pyrido[3,2-d]pyrimidine-2,4-diamine] | 15.5 | 3.9 | 18.3 | – | – | –
24 | Nc1nc(NCCCO)c2ncccc2n1 [Example 13, 3-((2-aminopyrido[3,2-d]pyrimidin-4-yl)amino)propan-1-ol] | > 50 | > 50 | > 50 | – | – | –
25 | Nc1nc(N[C@@H](CO)CCCCF)c2ncccc2n1 [Example 74, (R)-2-((2-aminopyrido[3,2-d]pyrimidin-4-yl)amino)-6-fluorohexan-1-ol] | 9.6 | > 50 | 9.1 | – | – | –
26 | CCCCC(Nc1nc(N)nc2cccnc12)C(C)O (stereo not drawn) [Example 104, 3-((2-aminopyrido[3,2-d]pyrimidin-4-yl)amino)heptan-2-ol] | – | – | – | 4.2 | 1.9 | 2.1
27 | CC(C)CC[C@H](CO)Nc1nc(N)nc2cccnc12 [Example 76, (R)-2-((2-aminopyrido[3,2-d]pyrimidin-4-yl)amino)-5-methylhexan-1-ol] | 31.8 | 36.9 | 36.9 | – | – | –
28 | CCC[C@H](Nc1nc(N)nc2cccnc12)C(=O)NCCO [Example 34, (S)-2-((2-aminopyrido[3,2-d]pyrimidin-4-yl)amino)-N-(2-hydroxyethyl)pentanamide] | 10.9 | > 50 | 12.2 | – | – | –
29 | CCC[C@@H](CO)Nc1nc(N)nc2cc(C#N)cnc12 [Example 22, (S)-2-amino-4-((1-hydroxypentan-2-yl)amino)pyrido[3,2-d]pyrimidine-7-carbonitrile] | > 50 | 35.9 | > 50 | – | – | –
30 | CCCC[C@@H](Nc1nc(N)nc2cc(F)cnc12)[C@H](C)O [Example 87, (2S,3R)-3-((2-amino-7-fluoropyrido[3,2-d]pyrimidin-4-yl)amino)heptan-2-ol] | 4.5 | > 50 | 5 | – | – | –
31 | CCCC[C@H](CO)Nc1nc(N)nc2ccc(C)nc12 [Example 39C, (R)-2-((2-amino-6-methylpyrido[3,2-d]pyrimidin-4-yl)amino)hexan-1-ol] | 41.5 | > 50 | > 50 | – | – | –
32 | CCC[C@@H](CO)Nc1nc(N)nc2ccc(C)nc12 [Example 33, (S)-2-((2-amino-6-methylpyrido[3,2-d]pyrimidin-4-yl)amino)pentan-1-ol] | 0.85 | 5.9 | 0.92 | – | – | –
